# Laboratory results as given in patent EP4755888A1 (ILAb Co., Ltd., priority 2023, dated 2025).
# Biological target: PD-1/PD-L1 (Homo sapiens, UniProt Q9NZQ7)
# Assay: TR-FRET PD-1/PD-L1 binding inhibition at the molecular level (free proteins)
# Conditions: Tag1-PD-L1 and Tag2-PD-1 proteins, twelve concentrations from 200 nM, 2 hours at room temperature, read-out: FRET assay (IC50)
# Outline: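 HTRF read-out at 665/620 nm after 2 h at room temperature. Detection used anti-Tag1 Eu cryptate plus anti-Tag2 XL665 antibodies. Tagged PD-L1 and PD-1 proteins were pre-mixed with compound across twelve […] 1:2 dilutions starting at 200 nM.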
# PD-1/PD-L1, sequence (Q9NZQ7 19-238 limits assumed): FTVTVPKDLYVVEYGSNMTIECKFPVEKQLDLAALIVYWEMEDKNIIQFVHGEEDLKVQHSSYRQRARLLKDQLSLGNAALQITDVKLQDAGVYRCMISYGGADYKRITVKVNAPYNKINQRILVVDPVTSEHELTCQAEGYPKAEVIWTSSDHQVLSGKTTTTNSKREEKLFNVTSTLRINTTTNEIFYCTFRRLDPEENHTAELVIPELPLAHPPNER
row,SMILES,IC50 [nM]
1,"COc1cc(-c2cccc(-c3cccc(NC(=O)c4cc5n(n4)CCCC5N4CC[C@@H](O)C4)c3C)c2C)cc(F)c1CNC(C)(C)C(=O)O (stereo partly drawn) [Compound 115, 2-(((3-fluoro-3""-(4-((R)-3-hydroxypyrrolidin-1-yl)-4,5,6,7-tetrahydropyrazolo[1,5-a]pyridine-2-carboxamido)-5-methoxy-2',2""-dimethyl-[1,1':3',1""-terphenyl]-4-yl)methyl)amino)-2-methylpropanoic acid]",< 10
2,"COc1nc(-c2cccc(-c3cccc(-c4cc5n(n4)CCCC5N4CC[C@@H](C(=O)O)C4)c3C)c2C)cnc1CNC[C@@H]1CCC(=O)N1 (stereo partly drawn) [Compound 165, (3R)-1-(2-(3'-(6-methoxy-5-(((((S)-5-oxopyrrolidin-2-yl)methyl)amino)methyl)pyrazin-2-yl)-2,2'-dimethyl-[1,1'-biphenyl]-3-yl)-4,5,6,7-tetrahydropyrazolo[1,5-a]pyridin-4-yl)pyrrolidine-3-carboxylic acid]",< 10
3,"Cc1c(NC(=O)c2cc3n(n2)CCCC3N2CCC(C(=O)O)CC2)cccc1-c1cccc(Nc2nc(C(F)F)nc3cc(CN4CC[C@@H](O)C4)cnc23)c1C (stereo partly drawn) [Compound 136, 1-(2-((3'-((2-(difluoromethyl)-7-(((R)-3-hydroxypyrrolidin-1-yl)methyl)pyrido[3,2-d]pyrimidin-4-yl)amino)-2,2'-dimethyl-[1,1'-biphenyl]-3-yl)carbamoyl)-4,5,6,7-tetrahydropyrazolo[1,5-a]pyridin-4-yl)piperidine-4-carboxylic acid]",< 10
4,"N#Cc1cc(CN2CC[C@@H](C(=O)O)C2)cc2nc(-c3cccc(-c4cccc(NC(=O)c5cc6n(n5)CCCC6NCCO)c4Cl)c3Cl)oc12 (stereo partly drawn) [Compound 70, (3R)-1-((7-cyano-2-(2,2'-dichloro-3'-(4-((2-hydroxyethyl)amino)-4,5,6,7-tetrahydropyrazolo[1,5-a]pyridine-2-carboxamido)-[1,1'-biphenyl]-3-yl)benzo[d]oxazol-5-yl)methyl)pyrrolidine-3-carboxylic acid]",< 10
5,"Cc1c(NC(=O)c2ccc(CN3CC[C@@H](O)C3)cn2)cccc1-c1cccc(NC(=O)c2cc3n(n2)CCN(CCO)C3)c1C [Compound 325, (R)-5-(2-hydroxyethyl)-N-(3'-(5-((3-hydroxypyrrolidin-1-yl)methyl)picolinamido)-2,2'-dimethyl-[1,1'-biphenyl]-3-yl)-4,5,6,7-tetrahydropyrazolo[1,5-a]pyrazine-2-carboxamide]",< 10
6,"CC(C)(N[C@H]1CCCn2nc(C(=O)Nc3cccc(-c4cccc(Nc5nc(C(F)(F)F)nc6cc(CN7CC[C@@H](O)C7)cnc56)c4Cl)c3Cl)cc21)C(=O)O [Compound 340, 2-(((S)-2-((2,2'-dichloro-3'-((7-(((R)-3-hydroxypyrrolidin-1-yl)methyl)-2-(trifluoromethyl)pyrido[3,2-d]pyrimidin-4-yl)amino)-[1,1'-biphenyl]-3-yl)carbamoyl)-4,5,6,7-tetrahydropyrazolo[1,5-a]pyridin-4-yl)amino)-2-methylpropanoic acid]",10 to 100
7,"CC(C)c1nc(Nc2cccc(-c3cccc(NC(=O)c4cc5n(n4)CCC[C@@H]5N4CCC(C(=O)O)CC4)c3Cl)c2Cl)c2ncccc2n1 (stereo in doubt) [Compound 298, (S)-1-(2-((2,2'-dichloro-3'-((2-isopropylpyrido[3,2-d]pyrimidin-4-yl)amino)-[1,1'-biphenyl]-3-yl)carbamoyl)-4,5,6,7-tetrahydropyrazolo[1,5-a]pyridin-4-yl)piperidine-4-carboxylic acid]",10 to 100
8,"Cc1c(NC(=O)c2cc3n(n2)CCCC3N2CCC(O)CC2)cccc1-c1cccc(Nc2nc(C(F)F)nc3cc(CN4CC[C@@H](O)C4)cnc23)c1C (stereo partly drawn) [Compound 135, N-(3'-((2-(difluoromethyl)-7-(((R)-3-hydroxypyrrolidin-1-yl)methyl)pyrido[3,2-d]pyrimidin-4-yl)amino)-2,2'-dimethyl-[1,1'-biphenyl]-3-yl)-4-(4-hydroxypiperidin-1-yl)-4,5,6,7-tetrahydropyrazolo[1,5-a]pyridine-2-carboxamide]",10 to 100
9,"Cc1c(Nc2nccc3cc(CN4CC[C@@H](O)C4)cnc23)cccc1-c1cccc(-c2cc3n(n2)CCCC3NC[C@@H]2CCC(=O)N2)c1C (stereo partly drawn) [Compound 176, (5S)-5-(((2-(3'-((3-(((R)-3-hydroxypyrrolidin-1-yl)methyl)-1,7-naphthyridin-8-yl)amino)-2,2'-dimethyl-[1,1'-biphenyl]-3-yl)-4,5,6,7-tetrahydropyrazolo[1,5-a]pyridin-4-yl)amino)methyl)pyrrolidin-2-one]",10 to 100
10,"Cc1c(NC(=O)c2cc3n(n2)CCCC3N2CC[C@@H](O)C2)cccc1-c1cccc(NC(=O)c2nc3c(n2C)CCN(CCC24CCC(C(=O)O)(CC2)C4)C3)c1C (stereo partly drawn) [Compound 47, 4-(2-(2-((3'-(4-((R)-3-hydroxypyrrolidin-1-yl)-4,5,6,7-tetrahydropyrazolo[1,5-a]pyridine-2-carboxamido)-2,2'-dimethyl-[1,1'-biphenyl]-3-yl)carbamoyl)-1-methyl-6,7-dihydro-1H-imidazo[4,5-c]pyridin-5(4H)-yl)ethyl)bicyclo[2.2.1]heptane-1-carboxylic acid]",< 10
11,"O=C(Nc1cccc(-c2cccc(Nc3nccc4cc(CN5CC[C@@H](O)C5)cnc34)c2Cl)c1Cl)c1cc2n(n1)CCCC2N1CCC(O)CC1 (stereo partly drawn) [Compound 23, N-(2,2'-dichloro-3'-((3-(((R)-3-hydroxypyrrolidin-1-yl)methyl)-1,7-naphthyridin-8-yl)amino)-[1,1'-biphenyl]-3-yl)-4-(4-hydroxypiperidin-1-yl)-4,5,6,7-tetrahydropyrazolo[1,5-a]pyridine-2-carboxamide]",10 to 100
12,"Cc1c(Nc2nccc3cc(CN4CC[C@@H](O)C4)cnc23)cccc1-c1cccc(NC(=O)c2cc3n(n2)CCCC3N2CCC(O)CC2)c1Cl (stereo partly drawn) [Compound 34, N-(2-chloro-3'-((3-(((R)-3-hydroxypyrrolidin-1-yl)methyl)-1,7-naphthyridin-8-yl)amino)-2'-methyl-[1,1'-biphenyl]-3-yl)-4-(4-hydroxypiperidin-1-yl)-4,5,6,7-tetrahydropyrazolo[1,5-a]pyridine-2-carboxamide]",10 to 100
13,"Cc1c(NC(=O)c2cc3n(n2)CCCC3O)cccc1-c1cccc(NC(=O)c2cc3n(n2)CCCC3NCCO)c1C (centres unmarked) [Compound 3-1, 4-hydroxy-N-(3'-(4-((2-hydroxyethyl)amino)-4,5,6,7-tetrahydropyrazolo[1,5-a]pyridine-2-carboxamido)-2,2'-dimethyl-[1,1'-biphenyl]-3-yl)-4,5,6,7-tetrahydropyrazolo[1,5-a]pyridine-2-carboxamide]",< 10
14,"COc1cc(-c2cccc(-c3cccc(NC(=O)c4cc5n(n4)CCCC5N4CC[C@@H](O)C4)c3Cl)c2Cl)cc(F)c1CNCCO (stereo partly drawn) [Compound 125, N-(2,2'-dichloro-3""-fluoro-4""-(((2-hydroxyethyl)amino)methyl)-5""-methoxy-[1,1':3',1""-terphenyl]-3-yl)-4-((R)-3-hydroxypyrrolidin-1-yl)-4,5,6,7-tetrahydropyrazolo[1,5-a]pyridine-2-carboxamide]",< 10

# Continued, values first:
row,IC50 [nM],SMILES
1,10 to 100,"CC(C)(N[C@@H]1CCCn2nc(C(=O)Nc3cccc(-c4cccc(Nc5nccc6nccnc56)c4Cl)c3Cl)cc21)C(=O)O [Compound 259-1, (R)-2-((2-((2,2'-dichloro-3'-(pyrido[3,4-b]pyrazin-5-ylamino)-[1,1'-biphenyl]-3-yl)carbamoyl)-4,5,6,7-tetrahydropyrazolo[1,5-a]pyridin-4-yl)amino)-2-methylpropanoic acid]"
2,< 10,"Cc1c(NC(=O)c2ccc(CNCCO)cn2)cccc1-c1cccc(NC(=O)c2cc3n(n2)CCCC3NCC(=O)O)c1C (centres unmarked) [Compound 76, 2-((2-((3'-(5-(((2-hydroxyethyl)amino)methyl)picolinamido)-2,2'-dimethyl-[1,1'-biphenyl]-3-yl)carbamoyl)-4,5,6,7-tetrahydropyrazolo[1,5-a]pyridin-4-yl)amino)acetic acid]"
3,< 10,"O=C(Nc1cccc(-c2cccc(NC(=O)c3cc4n(n3)CCCC4N3CCC(O)CC3)c2Cl)c1Cl)c1ccc(CN2CC[C@@H](O)C2)cn1 (stereo partly drawn) [Compound 106, N-(2,2'-dichloro-3'-(5-(((R)-3-hydroxypyrrolidin-1-yl)methyl)picolinamido)-[1,1'-biphenyl]-3-yl)-4-(4-hydroxypiperidin-1-yl)-4,5,6,7-tetrahydropyrazolo[1,5-a]pyridine-2-carboxamide]"
4,< 10,"O=C(O)CNC1CCCn2nc(C(=O)Nc3cccc(-c4cccc(NC(=O)c5ccc(CN6CC[C@@H](O)C6)cn5)c4Cl)c3Cl)cc21 (stereo partly drawn) [Compound 104, 2-((2-((2,2'-dichloro-3'-(5-(((R)-3-hydroxypyrrolidin-1-yl)methyl)picolinamido)-[1,1'-biphenyl]-3-yl)carbamoyl)-4,5,6,7-tetrahydropyrazolo[1,5-a]pyridin-4-yl)amino)acetic acid]"
5,< 10,"CC(C)(NC1CCCn2nc(C(=O)Nc3cccc(-c4cccc(NC(=O)c5ccc(CNCCO)cn5)c4Cl)c3Cl)cc21)C(=O)O (centres unmarked) [Compound 90, 2-((2-((2,2'-dichloro-3'-(5-(((2-hydroxyethyl)amino)methyl)picolinamido)-[1,1'-biphenyl]-3-yl)carbamoyl)-4,5,6,7-tetrahydropyrazolo[1,5-a]pyridin-4-yl)amino)-2-methylpropanoic acid]"
6,< 10,"O=C(O)CNC1CCCn2nc(C(=O)Nc3cccc(-c4cccc(NC(=O)c5cc6n(n5)CCCC6NCC(=O)O)c4Cl)c3Cl)cc21 (centres unmarked) [Compound 8, 2-[[2-[[3-[3-[[4-(carboxymethylamino)-4,5,6,7-tetrahydropyrazolo[1,5-a]pyridine-2-carbonyl]amino]-2-chlorophenyl]-2-chlorophenyl]carbamoyl]-4,5,6,7-tetrahydropyrazolo[1,5-a]pyridin-4-yl]amino]acetic acid]"
